Data: patent publication US12679842B2, “HCK as a therapeutic target in MYD88 mutated diseases” (Dana-Farber Cancer Institute, Inc., priority 2019, dated 2026)

Experiments:
[1] = system: BTK C481S expressing lentiviral vector transduced TMD8 ABC-DLBCL cells; test: CellTiter-Glo cell viability assay in BTK WT or BTK C481S transduced TMD8 cells; type: cell-based; conditions: MYD88 mutated ABC DLBCL cells (TMD8), 72 hrs, FIG. 4
[2] = system: BTK C481S expressing lentiviral vector transduced BCWM.1 WM cells; test: CellTiter-Glo cell viability assay in BTK WT or BTK C481S transduced BCWM.1 cells; type: cell-based; conditions: MYD88 mutated WM cells (BCWM.1), 72 hrs, FIG. 4

Compound: CN1CCN(C2CCC(n3nc(-c4ccc(Oc5ccccc5)cc4)c4c(N)nccc43)CC2)CC1 (centres unmarked) [Compound I-4]
- drug dose-response in BTK C481S expressing cells (ibrutinib resistance) [1]: overcomes BTKC481S mediated ibrutinib resistance
- drug dose-response in BTK C481S expressing cells (ibrutinib resistance) [2]: overcomes BTKC481S mediated ibrutinib resistance
